The first test addresses hT2R8 (Homo sapiens (Human), UniProt Q9NYW2). Nature of the test: hT2R8 antagonist high-throughput FLIPR assay, stable cell line with G16g44, agonist andrographolide. The test is classed as cell-based. Conditions: Table A; read-out: hT2R8 IC50. An excerpt:
After a ligand is identified for a particular hT2R, a HEK293 cell line stably expressing both the hT2R and G16gust44 are generated, facilitating future screening assays to identify other ligands that activate the particular hT2R or which modulate (block or enhance) the activation of this hT2R by another bitter ligand such as a bitter compound contained in coffee. This avoids the need for transient transfection.
To identify antagonists, cell lines stably expressing hT2R8 and hT2R14, respectively, together with the promiscuous chimeric G16g44 protein were generated as described in previous patent applications. A high-throughput assay was established using the stable cell lines and FLIPR (Fluorescent Imaging Plate Reader). An agonist of hT2R8 or hT2R14 was used to activate the receptors up to 70-80% of their respective maximal activity. For hT2R8, the agonist used was andrographolide (200 […]); for hT2R14, it was aristolochic acid (3 μM). To identify antagonists, compounds with diverse chemical structures were added together with the agonist.
To identify antagonists, cell lines stably expressing hT2R8 together with the promiscuous chimeric G16g44 protein were generated as described in previous patent applications. A high-throughput assay was established using the stable cell lines and FLIPR (Fluorescent Imaging Plate Reader). An agonist of hT2R8 was used to activate the receptors up to 70-80% of their respective maximal activity. For hT2R8, the agonist used was andrographolide (200 μM). To identify antagonists, compounds with diverse chemical structures were added together with the agonist.
Sequence of hT2R8 (Q9NYW2 whole entry): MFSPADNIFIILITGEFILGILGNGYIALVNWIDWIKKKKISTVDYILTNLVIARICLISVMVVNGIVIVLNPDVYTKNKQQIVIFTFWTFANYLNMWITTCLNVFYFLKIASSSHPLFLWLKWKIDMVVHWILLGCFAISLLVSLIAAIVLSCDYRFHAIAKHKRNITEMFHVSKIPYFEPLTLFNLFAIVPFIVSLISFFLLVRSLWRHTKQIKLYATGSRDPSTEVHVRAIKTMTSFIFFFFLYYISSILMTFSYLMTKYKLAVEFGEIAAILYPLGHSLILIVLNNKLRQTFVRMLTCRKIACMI
Take `CNc1cnn(Cc2c(C)noc2C)c1` [Example 4-96, 1-((3,5-dimethylisoxazol-4-yl)methyl)-N-methyl-1H-pyrazol-4-amine]: the half-inhibitory concentration (IC50) was 8760 nM.

Turning to `Cc1noc(C)c1Cn1cc(N(C)C(=O)C(C)c2ccccc2)cn1` (centres unmarked) [Example 4-97, N-(1-((3,5-dimethylisoxazol-4-yl)methyl)-1H-pyrazol-4-yl)-N-methyl-2-phenylpropanamide], the IC50 worked out at 2130 nM. Turning to `Cc1noc(C)c1Cn1cc(N(C)C(=O)[C@@H](C)c2ccccc2)cn1` [Example 4-98, (S)-N-(1-((3,5-dimethylisoxazol-4-yl)methyl)-1H-pyrazol-4-yl)-N-methyl-2-phenylpropanamide], the half-maximal inhibitory concentration (IC50) came to 2810 nM. On to `Cc1noc(C)c1Cn1cc(NS(=O)(=O)c2ccccc2C#N)cn1` [Example 4-99, 2-cyano-N-(1-((3,5-dimethylisoxazol-4-yl)methyl)-1H-pyrazol-4-yl)benzenesulfonamide], for which the IC50 came out at 1360 nM.

For `Cc1noc(C)c1Cn1cc(NS(=O)(=O)c2ccccc2F)cn1` [Example 4-100, N-(1-((3,5-dimethylisoxazol-4-yl)methyl)-1H-pyrazol-4-yl)-2-fluorobenzenesulfonamide], the half-inhibitory concentration (IC50) came to 8510 nM.

Regarding `COc1ccc(OC)c(S(=O)(=O)Nc2cnn(Cc3c(C)noc3C)c2)c1` [Example 4-101, N-(1-((3,5-dimethylisoxazol-4-yl)methyl)-1H-pyrazol-4-yl)-2,5-dimethoxybenzenesulfonamide], the IC50 is 1630 nM. `Cc1ccccc1S(=O)(=O)Nc1cnn(Cc2c(C)noc2C)c1` [Example 4-102, N-(1-((3,5-dimethylisoxazol-4-yl)methyl)-1H-pyrazol-4-yl)-2-methylbenzenesulfonamide]: the half-inhibitory concentration (IC50) turned out to be 2150 nM. Turning to `COc1ccccc1S(=O)(=O)Nc1cnn(Cc2c(C)noc2C)c1` [Example 4-103, N-(1-((3,5-dimethylisoxazol-4-yl)methyl)-1H-pyrazol-4-yl)-2-methoxybenzenesulfonamide], the IC50 turned out to be 3800 nM. `COC(=O)c1sccc1S(=O)(=O)Nc1cnn(Cc2c(C)noc2C)c1` [Example 4-104, methyl 3-(N-(1-((3,5-dimethylisoxazol-4-yl)methyl)-1H-pyrazol-4-yl)sulfamoyl)thiophene-2-carboxylate]: the IC50 turned out to be 1250 nM. Consider `Cc1noc(C)c1Cn1cc(NC(=S)Nc2ccccc2F)cn1` [Example 4-105, 1-(1-((3,5-dimethylisoxazol-4-yl)methyl)-1H-pyrazol-4-yl)-3-(2-fluorophenyl)thiourea], for which the IC50 stood at 1630 nM.

Consider `COc1ccccc1NC(=S)Nc1cnn(Cc2c(C)noc2C)c1` [Example 4-106, 1-(1-((3,5-dimethylisoxazol-4-yl)methyl)-1H-pyrazol-4-yl)-3-(2-methoxyphenyl)thiourea], for which the IC50 came out at 2610 nM. `Cc1noc(C)c1Cn1cc(NC(=S)Nc2cccnc2)cn1` [Example 4-107, 1-(1-((3,5-dimethylisoxazol-4-yl)methyl)-1H-pyrazol-4-yl)-3-(pyridin-3-yl)thiourea]: the IC50 stood at 3000 nM.

For `Cc1ccccc1NC(=S)Nc1cnn(Cc2c(C)noc2C)c1` [Example 4-108, 1-(1-((3,5-dimethylisoxazol-4-yl)methyl)-1H-pyrazol-4-yl)-3-o-tolylthiourea], the IC50 came to 3010 nM. For the compound `Cc1noc(C)c1Cn1cc(NC(=S)Nc2cccc(C#N)c2)cn1` [Example 4-109, 1-(3-cyanophenyl)-3-(1-((3,5-dimethylisoxazol-4-yl)methyl)-1H-pyrazol-4-yl)thiourea], the IC50 came to 783 nM. Consider `Cc1noc(C)c1Cn1cc(NC(=S)NCc2ccccc2)cn1` [Example 4-110, 1-benzyl-3-(1-((3,5-dimethylisoxazol-4-yl)methyl)-1H-pyrazol-4-yl)thiourea], for which the IC50 amounted to 1100 nM. On to `Cc1noc(C)c1Cn1cc(NC(=S)Nc2ccccc2C#N)cn1` [Example 4-111, 1-(2-cyanophenyl)-3-(1-((3,5-dimethylisoxazol-4-yl)methyl)-1H-pyrazol-4-yl)thiourea], for which the half-maximal inhibitory concentration (IC50) came out at 2350 nM.

Take `Cc1noc(C)c1Cn1cc(NC(=S)Nc2ccccc2)cn1` [Example 4-112, 1-(1-((3,5-dimethylisoxazol-4-yl)methyl)-1H-pyrazol-4-yl)-3-phenylthiourea]: the IC50 was determined as 2490 nM. Same read-out and setting: the figure for `COc1ccc(OC)c(NC(=S)Nc2cnn(Cc3c(C)noc3C)c2)c1` [Example 4-113, 1-(2,5-dimethoxyphenyl)-3-(1-((3,5-dimethylisoxazol-4-yl)methyl)-1H-pyrazol-4-yl)thiourea] is 5240 nM. With `COc1cccc(C(=O)Nc2nnn(Cc3c(C)noc3C)n2)c1` [Example 4-114, N-(2-((3,5-dimethylisoxazol-4-yl)methyl)-2H-tetrazol-5-yl)-3-methoxybenzamide], the IC50 was 1870 nM. The same measure, in the same setting: the result for `COc1cccc(C(=O)Nc2cn(Cc3c(C)noc3C)nc2C)c1` [Example 4-115, N-(1-((3,5-dimethylisoxazol-4-yl)methyl)-3-methyl-1H-pyrazol-4-yl)-3-methoxybenzamide] reads 9250 nM.

For `Cc1noc(C)c1Cn1cc(C(=O)NCc2cccs2)sc1=O` [Example 4-116, 3-((3,5-dimethylisoxazol-4-yl)methyl)-2-oxo-N-(thiophen-2-ylmethyl)-2,3-dihydrothiazole-5-carboxamide], the concentration for half-maximal inhibition (IC50) was 2280 nM.

Staying with this test, now noted: read-out: IC50 on hT2R8 bitter receptor.
For the compound `COc1cc(C(=O)Nc2cnn(Cc3c(C)noc3C)c2)cc2c1OCCO2` [Example 4-93, N-(1-((3,5-dimethylisoxazol-4-yl)methyl)-1H-pyrazol-4-yl)-8-methoxy-2,3-dihydrobenzo[b][1,4]dioxine-6-carboxamide], the half-maximal inhibitory concentration (IC50) was found to be 700 nM.

Turning to `COc1cc(C(=O)Nc2cnn(Cc3c(C)noc3C)c2)cc2c1OC(C)O2` (centres unmarked) [Example 4-94, N-(1-((3,5-dimethylisoxazol-4-yl)methyl)-1H-pyrazol-4-yl)-7-methoxy-2-methylbenzo[d][1,3]dioxole-5-carboxamide], the half-inhibitory concentration (IC50) amounted to 700 nM. The same measure, in the same setting: the result for `COc1cc2c(cc1C(=O)Nc1cnn(Cc3c(C)noc3C)c1)OCCO2` [Example 4-95, N-(1-((3,5-dimethylisoxazol-4-yl)methyl)-1H-pyrazol-4-yl)-7-methoxy-2,3-dihydrobenzo[b][1,4]dioxine-6-carboxamide] reads 700 nM. As to `Cc1noc(C)c1Cn1cc(NCc2ccccc2C#N)cn1` [Example 9-2, 2-((1-((3,5-dimethylisoxazol-4-yl)methyl)-1H-pyrazol-4-ylamino)methyl)benzonitrile], the IC50 is more than 30000 nM. Regarding `Cc1noc(C)c1Cn1cc(N2Cc3ccccc3C2=O)cn1` [Example 9-3, 2-(1-((3,5-dimethylisoxazol-4-yl)methyl)-1H-pyrazol-4-yl) isoindolin-1-One], the IC50 came to 11000 nM. In the case of `Cc1noc(C)c1Cn1cc(-n2c(=O)[nH]c3ccccc3c2=O)cn1` [Example 9-4, 3-(1-((3,5-dimethylisoxazol-4-yl)methyl)-1H-pyrazol-4-yl)quinazoline-2,4(1H,3H)-dione], the half-inhibitory concentration (IC50) was determined as 1500 nM. As to `Cc1noc(C)c1Cn1cc(N2CNCN(Cc3ccccc3)C2=O)cn1` [Example 9-6, 1-benzyl-3-(1-((3,5-dimethylisoxazol-4-yl)methyl)-1H-pyrazol-4-yl)-1,3,5-triazinan-2-one], the IC50 was determined as 5840 nM. With `Cc1noc(C)c1Cn1cc(N2CN(Cc3ccccc3)CN(CCc3ccccc3)C2=O)cn1` [Example 9-7, 5-benzyl-1-(1-((3,5-dimethylisoxazol-4-yl)methyl)-1H-pyrazol-4-yl)-3-phenethyl-1,3,5-triazinan-2-one], the IC50 worked out at 2640 nM. The same measure, in the same setting: the figure for `Cc1noc(C)c1Cn1cc(-n2c(=O)[nH]c(=O)n(CCc3ccccc3)c2=O)cn1` [Example 9-8, 1-(1-((3,5-dimethylisoxazol-4-yl)methyl)-1H-pyrazol-4-yl)-3-phenethyl-1,3,5-triazinane-2,4,6-trione] is 3030 nM; for `Cc1noc(C)c1Cn1cc(-n2c(=O)[nH]c(=O)n(Cc3ccccc3)c2=O)cn1` [Example 9-9, 1-benzyl-3-(1-((3,5-dimethylisoxazol-4-yl)methyl)-1H-pyrazol-4-yl)-1,3,5-triazinane-2,4,6-trione] it is 1140 nM; for `Cc1noc(C)c1Cn1cc(N2C(=O)CNC2=O)cn1` [Example 10-1, 3-(1-((3,5-dimethylisoxazol-4-yl)methyl)-1H-pyrazol-4-yl)imidazolidine-2,4-dione] it is 1700 nM. The same measure, in the same setting: the result for `Cc1noc(C)c1Cn1cc(N2C(=O)N[C@H](Cc3ccccc3)C2=O)cn1` [Example 10-4, (R)-5-benzyl-3-(1-((3,5-dimethylisoxazol-4-yl)methyl)-1H-pyrazol-4-yl)imidazolidine-2,4-dione] reads 110 nM.

Staying with this test, now noted: table after Example 10-97; read-out: hT2R8 IC50.
`Cc1noc(C)c1Cn1cc(N2CCCN(Cc3ccccc3)C2=O)cn1` [Example 9-5]: the 50% inhibitory concentration (IC50) was found to be 3430 nM. Regarding `Cc1noc(C)c1Cn1cc(N2CNCN(Cc3ccccc3)C2=O)cn1` [Example 9-6, 1-benzyl-3-(1-((3,5-dimethylisoxazol-4-yl)methyl)-1H-pyrazol-4-yl)-1,3,5-triazinan-2-one], the IC50 was determined as 6030 nM.

On to `Cc1noc(C)c1Cn1cc(N2CN(Cc3ccccc3)CN(CCc3ccccc3)C2=O)cn1` [Example 9-7, 5-benzyl-1-(1-((3,5-dimethylisoxazol-4-yl)methyl)-1H-pyrazol-4-yl)-3-phenethyl-1,3,5-triazinan-2-one], for which the IC50 amounted to 6580 nM. In the case of `Cc1noc(C)c1Cn1cc(-n2c(=O)[nH]c(=O)n(CCc3ccccc3)c2=O)cn1` [Example 9-8, 1-(1-((3,5-dimethylisoxazol-4-yl)methyl)-1H-pyrazol-4-yl)-3-phenethyl-1,3,5-triazinane-2,4,6-trione], the half-inhibitory concentration (IC50) was determined as 6150 nM. For the compound `Cc1noc(C)c1Cn1cc(-n2c(=O)[nH]c(=O)n(Cc3ccccc3)c2=O)cn1` [Example 9-9, 1-benzyl-3-(1-((3,5-dimethylisoxazol-4-yl)methyl)-1H-pyrazol-4-yl)-1,3,5-triazinane-2,4,6-trione], the IC50 was 1560 nM. Still for that read-out and setting: the result for `Cc1noc(C)c1Cn1cc(N2C(=O)CNC2=O)cn1` [Example 10-1, 3-(1-((3,5-dimethylisoxazol-4-yl)methyl)-1H-pyrazol-4-yl)imidazolidine-2,4-dione] reads 1700 nM; that for `Cc1noc(C)c1Cn1cc(N2C(=O)N[C@@H](Cc3ccccc3)C2=O)cn1` [Example 10-3, (S)-5-benzyl-3-(1-((3,5-dimethylisoxazol-4-yl)methyl)-1H-pyrazol-4-yl)imidazolidine-2,4-dione], 113 nM; that for `Cc1noc(C)c1Cn1cc(N2C(=O)N[C@H](Cc3ccccc3)C2=O)cn1` [Example 10-4, (R)-5-benzyl-3-(1-((3,5-dimethylisoxazol-4-yl)methyl)-1H-pyrazol-4-yl)imidazolidine-2,4-dione], 112 nM.

As a reminder, the IC50 is the midpoint of a concentration-inhibition curve.

(Values after patent US9247759B2, “Identification of human T2R receptors that respond to bitter compounds that elicit the bitter taste in compositions, and the use thereof in assays to identify compounds that inhibit (block) bitter taste in compositions and use thereof” (SENOMYX, INC., priority 2007, dated 2016).)
